Results: PubChem BioAssay AID330 (DTP/NCI, 2004)
Several values for one entry are separate records, joined by “and”; a condition that tells them apart may be missing. Identical values can stand only once. Inconclusive results and toxic doses are left out. Peptide text beside a SMILES is read from it.

System: P388 leukemia ip, CD2F1 mice, survival T/C
Test: NCI In Vivo Anticancer Drug Screen. Data for tumor model P388 Leukemia (intraperitoneal) in CD2F1 (CDF1) mice
Conditions: endpoint: median survival time, higher = longer survival
Outline: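 Mice carrying the transplanted tumor received test compound or vehicle. Survival was recorded in each group, and the value is the treated-group measurement divided by that of the vehicle-treated control group.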

[1] = dose: 50.0 mg/kg/injection, schedule: Q01DX005 (ip), vehicle: saline with Tween-80
[2] = dose: 100.0 mg/kg/injection, schedule: Q01DX005 (ip), vehicle: saline with Tween-80
[3] = dose: 200.0 mg/kg/injection, schedule: Q01DX005 (ip), vehicle: saline with Tween-80
[4] = dose: 100.0 mg/kg/injection, schedule: Q01DX001 (ip), vehicle: saline with Tween-80
[5] = dose: 200.0 mg/kg/injection, schedule: Q01DX001 (ip), vehicle: saline with Tween-80
[6] = dose: 400.0 mg/kg/injection, schedule: Q01DX001 (ip), vehicle: saline with Tween-80
[7] = dose: 50.0 mg/kg/injection, schedule: Q01DX005 (ip), vehicle: Klucel (hydroxypropylcellulose) (HPC)
[8] = dose: 100.0 mg/kg/injection, schedule: Q01DX005 (ip), vehicle: Klucel (hydroxypropylcellulose) (HPC)
[9] = dose: 200.0 mg/kg/injection, schedule: Q01DX005 (ip), vehicle: Klucel (hydroxypropylcellulose) (HPC)
[10] = dose: 50.0 mg/kg/injection, schedule: Q04DX003 (ip), vehicle: saline with Tween-80
[11] = dose: 100.0 mg/kg/injection, schedule: Q04DX003 (ip), vehicle: saline with Tween-80
[12] = dose: 50.0 mg/kg/injection, schedule: Q01DX009 (ip), vehicle: Klucel (hydroxypropylcellulose) (HPC)
[13] = dose: 100.0 mg/kg/injection, schedule: Q01DX009 (ip), vehicle: Klucel (hydroxypropylcellulose) (HPC)
[14] = dose: 50.0 mg/kg/injection, schedule: Q01DX009 (ip), vehicle: saline
[15] = dose: 100.0 mg/kg/injection, schedule: Q01DX009 (ip), vehicle: saline
[16] = dose: 200.0 mg/kg/injection, schedule: Q01DX009 (ip), vehicle: saline
[17] = dose: 25.0 mg/kg/injection, schedule: Q01DX009 (ip), vehicle: Klucel (hydroxypropylcellulose) (HPC)
[18] = dose: 200.0 mg/kg/injection, schedule: Q01DX009 (ip), vehicle: Klucel (hydroxypropylcellulose) (HPC)

For `CN(Cc1c(O)ccc2ccccc12)Cc1c(O)ccc2ccccc12`, the T/C [1] was 97 % of control, the T/C [2] was 109 % of control and the T/C [3] was 100 % of control.

In the case of `O=c1c2cc(O)ccc2oc2c(CO)ccc(NCCN3CCCC3)c12`, the T/C [4] is reported as 93 % of control, the T/C [5] is reported as 100 % of control and the T/C [6] is reported as 106 % of control.

With `O=C(O)COc1ccccc1P(=O)(c1ccccc1)c1ccccc1` the T/C [7] was 101 % of control, the T/C [8] was 102 % of control and the T/C [9] was 103 % of control.

In the case of `Brc1ccc(Nc2c3ccccc3nc3ccccc23)cc1`, the T/C [10] is reported as 95 % of control and the T/C [11] is reported as 100 % of control.

`COc1cc2c(cc1[N+](=O)[O-])C(=O)C(Br)(Br)CCC2` was tested, and the T/C [12] was 116 % of control and the T/C [13] was 119 % of control.

For `O=C1OC(c2ccccc2)(c2ccccc2)C2CC12c1ccccc1` (configuration not stated), the T/C (dose: 100.0 mg/kg/injection, schedule: Q01DX001 (ip), vehicle: Klucel (hydroxypropylcellulose) (HPC)) was 95 % of control, the T/C (dose: 200.0 mg/kg/injection, schedule: Q01DX001 (ip), vehicle: Klucel (hydroxypropylcellulose) (HPC)) was 95 % of control and the T/C (dose: 400.0 mg/kg/injection, schedule: Q01DX001 (ip), vehicle: Klucel (hydroxypropylcellulose) (HPC)) was 88 % of control.

`Cc1cc(CCO)n[nH]1` was tested, and the T/C [14] was 97 % of control, the T/C [15] was 100 % of control and the T/C [16] was 100 % of control.

`Cc1cc(OCc2nnc3n2S(=O)(=O)c2ccccc2N3c2ccccc2)ccc1Cl` was tested, and the T/C (dose: 100.0 mg/kg/injection, schedule: Q04DX002 (ip), vehicle: saline with Tween-80) was 92 % of control, the T/C (dose: 200.0 mg/kg/injection, schedule: Q04DX002 (ip), vehicle: saline with Tween-80) was 92 % of control and the T/C (dose: 400.0 mg/kg/injection, schedule: Q04DX002 (ip), vehicle: saline with Tween-80) was 87 % of control.

With `[C-]#[N+]N=P(c1ccccc1)(c1ccccc1)c1ccccc1` the T/C (dose: 60.0 mg/kg/injection, schedule: Q01DX005 (ip), vehicle: Klucel (hydroxypropylcellulose) (HPC)) was 107 % of control, the T/C (dose: 120.0 mg/kg/injection, schedule: Q01DX005 (ip), vehicle: Klucel (hydroxypropylcellulose) (HPC)) was 114 % of control and the T/C (dose: 240.0 mg/kg/injection, schedule: Q01DX005 (ip), vehicle: Klucel (hydroxypropylcellulose) (HPC)) was 122 % of control.

With `CC(C)CC(NC(=O)C(C)NC(=O)CN)C(=O)O` (stereo not drawn) (H-Gly-Ala-Leu-OH; configuration not given here) the T/C [1] was 103 % of control, the T/C [2] was 107 % of control and the T/C [3] was 99 % of control.

In the case of `C/C(N=NC(=S)N1CCC(C)CC1)=C1\C=CC=CN1O`, the T/C [1] is reported as 103 % of control, the T/C [2] is reported as 103 % of control and the T/C [3] is reported as 108 % of control.

In the case of `Cc1ccc(C(=O)/C(=C/c2ccccn2)N=[N+]=[N-])cc1`, the T/C [4] is reported as 110 % of control, the T/C [5] is reported as 104 % of control and the T/C [6] is reported as 99 % of control.

For `C[Si](C)(C)O[C@@H]1CCCC1NCC#N` (some centres not stated), the T/C [1] was 101 % of control, the T/C [2] was 101 % of control and the T/C [3] was 92 % of control.

`CC(=O)Oc1cc2c(C)c3ccccc3cc2c2ccccc12` was tested, and the T/C (dose: 75.0 mg/kg/injection, schedule: Q01DX001 (ip), vehicle: Klucel (hydroxypropylcellulose) (HPC)) was 102 % of control, the T/C (dose: 150.0 mg/kg/injection, schedule: Q01DX001 (ip), vehicle: Klucel (hydroxypropylcellulose) (HPC)) was 102 % of control and the T/C (dose: 300.0 mg/kg/injection, schedule: Q01DX001 (ip), vehicle: Klucel (hydroxypropylcellulose) (HPC)) was 100 % of control.

`CC(C)=CCC(OC(=O)CC(C)(C)O)C1=CC(=O)c2c(O)ccc(O)c2C1=O` (configuration not stated) was tested, and the T/C (dose: 18.75 mg/kg/injection, schedule: Q01DX005 (ip), vehicle: Klucel (hydroxypropylcellulose) (HPC)) was 90 % of control and the T/C (dose: 37.5 mg/kg/injection, schedule: Q01DX005 (ip), vehicle: Klucel (hydroxypropylcellulose) (HPC)) was 100 % of control.

In the case of `O=C1C(CO)NC(=S)N1c1ccccc1` (configuration not stated), the T/C (dose: 12.5 mg/kg/injection, schedule: Q01DX001 (ip), vehicle: saline with Tween-80) is reported as 109 % of control, the T/C (dose: 25.0 mg/kg/injection, schedule: Q01DX001 (ip), vehicle: saline with Tween-80) is reported as 102 % of control and the T/C (dose: 50.0 mg/kg/injection, schedule: Q01DX001 (ip), vehicle: saline with Tween-80) is reported as 97 % of control. For the same molecule, the T/C [4] was 105 % of control and the T/C [5] was 102 % of control.

`CCn1c2ccccc2c2cc(/C=N/N=C/c3ccc4c(c3)c3ccccc3n4CC)ccc21` was tested, and the T/C (dose: 3.12 mg/kg/injection, schedule: Q01DX005 (ip), vehicle: saline with Tween-80) was 93 % of control, the T/C (dose: 6.25 mg/kg/injection, schedule: Q01DX005 (ip), vehicle: saline with Tween-80) was 90 % of control and the T/C (dose: 12.5 mg/kg/injection, schedule: Q01DX005 (ip), vehicle: saline with Tween-80) was 88 % of control.

`C[C@]12CCC[C@@H]3C[C@@]31C[C@@H]([C@@]1(C)CO1)CC2` was tested, and the T/C [17] was 98 % of control and 91 % of control, the T/C [12] was 102 % of control and 106 % of control and the T/C [13] was 102 % of control and 104 % of control and 88 % of control. For the same molecule, the T/C [18] was 100 % of control and 120 % of control.

For `ClC1=NOC(c2ccccc2)C1` (configuration not stated), the T/C (dose: 6.25 mg/kg/injection, schedule: Q01DX005 (ip), vehicle: distilled water + Tween-80) was 110 % of control, the T/C (dose: 12.5 mg/kg/injection, schedule: Q01DX005 (ip), vehicle: distilled water + Tween-80) was 97 % of control and the T/C (dose: 25.0 mg/kg/injection, schedule: Q01DX005 (ip), vehicle: distilled water + Tween-80) was 100 % of control. For the same molecule, the T/C (dose: 50.0 mg/kg/injection, schedule: Q01DX005 (ip), vehicle: distilled water + Tween-80) was 105 % of control and 107 % of control, the T/C (dose: 100.0 mg/kg/injection, schedule: Q01DX005 (ip), vehicle: distilled water + Tween-80) was 99 % of control and the T/C (dose: 200.0 mg/kg/injection, schedule: Q01DX005 (ip), vehicle: distilled water + Tween-80) was 108 % of control.

`CCN(CC)CCOC12CC3CC(CC(C3)C1)C2` was tested, and the T/C (dose: 12.5 mg/kg/injection, schedule: Q01DX005 (ip), vehicle: Klucel (hydroxypropylcellulose) (HPC)) was 104 % of control, the T/C (dose: 25.0 mg/kg/injection, schedule: Q01DX005 (ip), vehicle: Klucel (hydroxypropylcellulose) (HPC)) was 101 % of control and the T/C [7] was 100 % of control and 104 % of control.

For `O=S(=O)(c1ccc(F)cc1)N(CCCCCN(S(=O)(=O)c1ccc(F)cc1)S(=O)(=O)c1ccc(F)cc1)S(=O)(=O)c1ccc(F)cc1`, the T/C (dose: 60.0 mg/kg/injection, schedule: Q01DX005 (ip), vehicle: saline with Tween-80) was 97 % of control, the T/C (dose: 120.0 mg/kg/injection, schedule: Q01DX005 (ip), vehicle: saline with Tween-80) was 91 % of control and the T/C (dose: 240.0 mg/kg/injection, schedule: Q01DX005 (ip), vehicle: saline with Tween-80) was 90 % of control.

`Cc1nn(C(=O)c2cccnc2)c(-c2ccccc2)c1N=Nc1ccc(C(=O)O)cc1` was tested, and the T/C [1] was 93 % of control and the T/C [2] was 93 % of control.

With `CCCCCCCCCC(=O)C(=O)c1ccc(O)c(C)c1O` the T/C [12] was 94 % of control, the T/C [13] was 94 % of control and the T/C [18] was 94 % of control.

In the case of `O=C(CCCN1CCC(C(=O)c2ccc(Cl)cc2)CC1)c1ccc(F)cc1`, the T/C (dose: 3.0 mg/kg/injection, schedule: Q01DX009 (ip), vehicle: Klucel (hydroxypropylcellulose) (HPC)) is reported as 99 % of control, the T/C (dose: 6.0 mg/kg/injection, schedule: Q01DX009 (ip), vehicle: Klucel (hydroxypropylcellulose) (HPC)) is reported as 97 % of control and the T/C (dose: 12.0 mg/kg/injection, schedule: Q01DX009 (ip), vehicle: Klucel (hydroxypropylcellulose) (HPC)) is reported as 108 % of control.

In the case of `CC(=O)NC(Cc1cc(I)c(O)c(I)c1)C(=O)O` (configuration not stated), the T/C [17] is reported as 94 % of control, the T/C [12] is reported as 88 % of control and the T/C [14] is reported as 100 % of control. For the same molecule, the T/C [13] was 94 % of control, the T/C [15] was 107 % of control and the T/C [18] was 94 % of control. For the same molecule, the T/C [16] was 105 % of control.

For `CCCCOP(=S)(N1CC1)N1CC1`, the T/C (dose: 6.25 mg/kg/injection, schedule: Q04DX003 (ip), vehicle: saline with Tween-80) was 154 % of control, the T/C (dose: 12.5 mg/kg/injection, schedule: Q04DX003 (ip), vehicle: saline with Tween-80) was 195 % of control and the T/C (dose: 25.0 mg/kg/injection, schedule: Q04DX003 (ip), vehicle: saline with Tween-80) was 236 % of control. For the same molecule, the T/C (dose: 44.0 mg/kg/injection, schedule: Q04DX003 (ip), vehicle: saline with Tween-80) was 204 % of control, the T/C [10] was 259 % of control and the T/C (dose: 66.0 mg/kg/injection, schedule: Q04DX003 (ip), vehicle: saline with Tween-80) was 200 % of control. The T/C [11] was 179 % of control and the T/C (dose: 150.0 mg/kg/injection, schedule: Q04DX003 (ip), vehicle: saline with Tween-80) was 100 % of control.

For `CC[C@@]1(CCC(=O)OC)CCC(=O)N2CC[C@@]3(C(=O)Nc4ccccc43)[C@@H]21`, the T/C [7] was 100 % of control, the T/C [8] was 95 % of control and the T/C [9] was 91 % of control.
